Converted amounts (≈) assume the structure as drawn.
Conditions: for aqueous solubility: pH 6.8

`Nc1nc(N)c2nc(-c3cccc(O)c3)c(-c3cccc(O)c3)nc2n1` showed an MDR1-MDCK efflux ratio of 2.78, an intrinsic clearance, human liver microsomes of no more than 4.74 mL/min/kg and an intrinsic clearance, rat liver microsomes of 115 mL/min/kg. It also gave an aqueous solubility of 2.1 µg/mL (≈ 6.06 µM).

With `COCC(=O)N1CCN2C(=O)NC[C@H]2C1` the aqueous solubility was 38.4 µg/mL (≈ 180 µM).

Compound `Cc1cc(C(=O)NC2CCN(c3nc(-c4cccs4)nc4ccccc34)CC2)on1` has an MDR1-MDCK efflux ratio of 0.753 and an aqueous solubility of 0.96 µg/mL (≈ 2.29 µM).

`O=c1[nH]c2cc3ccccc3c(=O)n2c2sc3c(c12)CCCC3` gave an aqueous solubility of 15.2 µg/mL (≈ 47 µM).

Compound `c1ccc2[nH]c(SCc3cn4ccccc4n3)nc2c1` has an intrinsic clearance, human liver microsomes of 86.2 mL/min/kg, an intrinsic clearance, rat liver microsomes of 462 mL/min/kg and an aqueous solubility of 44.9 µg/mL (≈ 160 µM).

Work on `Cc1ccc(C(=O)NC[C@H]2Cn3ccnc3CO2)cc1` yielded an MDR1-MDCK efflux ratio of 7.94, an intrinsic clearance, human liver microsomes of no more than 4.74 mL/min/kg and an intrinsic clearance, rat liver microsomes of no more than 10.7 mL/min/kg. For the same compound, the aqueous solubility was 30.4 µg/mL (≈ 112 µM).

Compound `CCONC(=O)c1cnn(-c2cccc(Cl)c2)c1` has an intrinsic clearance, human liver microsomes of 34.9 mL/min/kg, an intrinsic clearance, rat liver microsomes of 446 mL/min/kg and an aqueous solubility of 41 µg/mL (≈ 154 µM).

Work on `Cc1cc(CNC(=O)N(C)Cc2c(C)nn(C)c2C)cnc1C` yielded an MDR1-MDCK efflux ratio of 94.1, an intrinsic clearance, human liver microsomes of no more than 4.74 mL/min/kg and an intrinsic clearance, rat liver microsomes of 112 mL/min/kg.

Work on `NC[C@@](O)(c1ccc(Cl)cc1)c1ccc(-c2cn[nH]c2)cc1` yielded an MDR1-MDCK efflux ratio of 1.61, an intrinsic clearance, human liver microsomes of no more than 4.74 mL/min/kg and an intrinsic clearance, rat liver microsomes of 28 mL/min/kg.

For `Cc1ccccc1C(=O)N1CCC(O)(Cn2ccnc2C)CC1`, the MDR1-MDCK efflux ratio was 4.93, the intrinsic clearance, human liver microsomes was 4.92 mL/min/kg and the intrinsic clearance, rat liver microsomes was 100 mL/min/kg.

`Cc1ccc(NC(=O)CN2CCCN(c3ccc(C(F)(F)F)cn3)CC2)cc1` showed an MDR1-MDCK efflux ratio of 0.857, an intrinsic clearance, human liver microsomes of 126 mL/min/kg and an intrinsic clearance, rat liver microsomes of 602 mL/min/kg. The aqueous solubility was 12.9 µg/mL (≈ 33 µM).

In the case of `CC(C)c1nnc(CNC(=O)C2(C)CCC2)n1C`, the MDR1-MDCK efflux ratio was 45.4, the intrinsic clearance, human liver microsomes was no more than 4.74 mL/min/kg and the intrinsic clearance, rat liver microsomes was no more than 10.7 mL/min/kg. The aqueous solubility was 51.8 µg/mL (≈ 207 µM).

`O=C(NCc1ccc(O)c(O)c1)c1ccc2ccccc2n1` showed an intrinsic clearance, human liver microsomes of no more than 4.74 mL/min/kg, an intrinsic clearance, rat liver microsomes of 315 mL/min/kg and an aqueous solubility of 55.4 µg/mL (≈ 188 µM).

Work on `Cc1csc(Cc2nc(-c3ccc(O)cc3)no2)n1` yielded an MDR1-MDCK efflux ratio of 0.531, an intrinsic clearance, human liver microsomes of 15.1 mL/min/kg and an intrinsic clearance, rat liver microsomes of 288 mL/min/kg.

With `Cc1nnc2ccc(N3CCC4(CCCCC4)C3)nn12` the MDR1-MDCK efflux ratio was 0.709, the intrinsic clearance, human liver microsomes was 33.2 mL/min/kg and the intrinsic clearance, rat liver microsomes was 600 mL/min/kg.

In the case of `CN(CCc1ccccn1)C(=O)Nc1nncs1`, the MDR1-MDCK efflux ratio was 1.63, the intrinsic clearance, human liver microsomes was no more than 4.74 mL/min/kg and the intrinsic clearance, rat liver microsomes was no more than 10.7 mL/min/kg. It also gave an aqueous solubility of 45.6 µg/mL (≈ 173 µM).

`C[C@@H]1CCN(C(=O)CC#N)C[C@@H]1N(C)c1ncnc2[nH]ccc12` showed an MDR1-MDCK efflux ratio of 41.1, a fraction unbound, human plasma of 0.981 and a fraction unbound, rat plasma of 0.559. The intrinsic clearance, human liver microsomes was no more than 4.74 mL/min/kg, the intrinsic clearance, rat liver microsomes was 120 mL/min/kg and the aqueous solubility was 41.2 µg/mL (≈ 132 µM).

`Cc1ccsc1-c1nsc(NC(=O)CN(C)C)n1` gave an MDR1-MDCK efflux ratio of 0.874, an intrinsic clearance, human liver microsomes of no more than 4.74 mL/min/kg and an intrinsic clearance, rat liver microsomes of 548 mL/min/kg.

Compound `CN(NC(=O)c1ccn(-c2ccccc2)n1)c1ccccc1` has an intrinsic clearance, human liver microsomes of 82.3 mL/min/kg, an intrinsic clearance, rat liver microsomes of 1900 mL/min/kg and an aqueous solubility of 58.1 µg/mL (≈ 199 µM).

Compound `O=C(O)c1c(O)c(Cc2ccc(Cl)cc2)nc2c3c(ccc12)CCCC3` has an aqueous solubility of 0.79 µg/mL (≈ 2.15 µM).

With `Cc1ccc(C)c(-n2c(S)nnc2-c2ccc(O)cc2)c1` the MDR1-MDCK efflux ratio was 31.1, the intrinsic clearance, human liver microsomes was 5.5 mL/min/kg and the intrinsic clearance, rat liver microsomes was 164 mL/min/kg. For the same compound, the aqueous solubility was 22.1 µg/mL (≈ 74.1 µM).

In the case of `CCn1cc(C2CCN(Cc3ccc(C#N)cc3)CC2)cn1`, the MDR1-MDCK efflux ratio was 0.45, the intrinsic clearance, human liver microsomes was 12.2 mL/min/kg and the intrinsic clearance, rat liver microsomes was 188 mL/min/kg. For the same compound, the aqueous solubility was 43 µg/mL (≈ 146 µM).

Compound `O=C(NC1CCCCC1)C1=CCN(C(=O)C2CC2)C1` has an MDR1-MDCK efflux ratio of 2.4, an intrinsic clearance, human liver microsomes of no more than 4.74 mL/min/kg and an intrinsic clearance, rat liver microsomes of 29.8 mL/min/kg.

For `CC(/C=C/C(=O)NO)=C\[C@@H](C)C(=O)c1ccc(N(C)C)cc1`, the MDR1-MDCK efflux ratio was 5.29, the intrinsic clearance, human liver microsomes was 23.3 mL/min/kg and the intrinsic clearance, rat liver microsomes was 152 mL/min/kg. The aqueous solubility was 22.1 µg/mL (≈ 73.1 µM).

`Cc1cc(NC(=O)Cn2nc(C3CC3)ccc2=O)ccc1Cl` gave an MDR1-MDCK efflux ratio of 0.894 and an aqueous solubility of 0.86 µg/mL (≈ 2.71 µM).

`CC(C)c1noc(-c2ccc(N(C)Cc3cccnc3)nc2)n1` showed an MDR1-MDCK efflux ratio of 0.511, an intrinsic clearance, human liver microsomes of 45.6 mL/min/kg and an intrinsic clearance, rat liver microsomes of 459 mL/min/kg. The aqueous solubility was 36.6 µg/mL (≈ 118 µM).

`Cc1cc(C(=O)NCC2CCC3(CC2)OCCO3)[nH]n1` showed an MDR1-MDCK efflux ratio of 4.03, an intrinsic clearance, human liver microsomes of no more than 4.74 mL/min/kg and an intrinsic clearance, rat liver microsomes of 99.2 mL/min/kg.

For `O=c1ncn2nc(Sc3ccc(F)cc3F)ccc2c1-c1c(Cl)cccc1Cl`, the MDR1-MDCK efflux ratio was 8.01, the intrinsic clearance, human liver microsomes was 14.6 mL/min/kg and the intrinsic clearance, rat liver microsomes was 90.4 mL/min/kg. The aqueous solubility was 12.9 µg/mL (≈ 29.6 µM).

`c1ccc(Oc2cccc(CN(CCN3CCOCC3)Cc3cccnc3)c2)cc1` gave an MDR1-MDCK efflux ratio of 1.33, a fraction unbound, human plasma of 0.00599 and a fraction unbound, rat plasma of 0.0139. It also gave an intrinsic clearance, human liver microsomes of 1250 mL/min/kg, an intrinsic clearance, rat liver microsomes of 3870 mL/min/kg and an aqueous solubility of 66.7 µg/mL (≈ 165 µM).

`Cc1nc(O)c(Cl)c(N(C)CC2CCN(C)CC2)n1` showed an MDR1-MDCK efflux ratio of 7.64, an intrinsic clearance, human liver microsomes of no more than 4.74 mL/min/kg and an intrinsic clearance, rat liver microsomes of no more than 10.7 mL/min/kg.

Work on `CN(C)S(=O)(=O)Nc1ccc2sncc2c1` yielded an aqueous solubility of 53.6 µg/mL (≈ 208 µM).

Compound `Cc1nc(CN(C)C(=O)C2c3ccccc3-c3ccccc32)no1` has an MDR1-MDCK efflux ratio of 1.09, an intrinsic clearance, human liver microsomes of 15 mL/min/kg and an intrinsic clearance, rat liver microsomes of 430 mL/min/kg. For the same compound, the aqueous solubility was 32.6 µg/mL (≈ 102 µM).

`Cc1nc2ncc3c(n2n1)CCCC3=O` showed an MDR1-MDCK efflux ratio of 0.752, an intrinsic clearance, human liver microsomes of no more than 4.74 mL/min/kg and an intrinsic clearance, rat liver microsomes of no more than 10.7 mL/min/kg.

`CC1CCC(N(Cc2nnc(C3CCC3)o2)C2CCC(O)CC2)CC1` (stereo unspecified) gave an MDR1-MDCK efflux ratio of 2.03, an intrinsic clearance, human liver microsomes of 230 mL/min/kg and an intrinsic clearance, rat liver microsomes of 1610 mL/min/kg.

`O=C(c1cc(Oc2cccc(F)c2)nc2ccccc12)N1CCOCC1` showed an aqueous solubility of 16.1 µg/mL (≈ 45.7 µM).

`COc1cccc(CN(C)c2ncnc3c2CN(C)CC3)c1` showed an MDR1-MDCK efflux ratio of 0.754, an intrinsic clearance, human liver microsomes of 18.6 mL/min/kg and an intrinsic clearance, rat liver microsomes of 183 mL/min/kg. For the same compound, the aqueous solubility was 57.7 µg/mL (≈ 193 µM).

For `CCc1ccc(S(=O)(=O)NCc2ccnc(N3CCCC3)n2)cc1`, the MDR1-MDCK efflux ratio was 0.891, the intrinsic clearance, human liver microsomes was 311 mL/min/kg and the intrinsic clearance, rat liver microsomes was 2060 mL/min/kg. The aqueous solubility was 67.7 µg/mL (≈ 195 µM).

For `Cc1noc2ncc(-c3nnc(CC(C)(C)C)o3)cc12`, the aqueous solubility was 37.7 µg/mL (≈ 138 µM).

`Cn1cnnc1-c1cccc(NS(=O)(=O)c2cc3c(cc2Cl)OCCO3)c1` showed an MDR1-MDCK efflux ratio of 16.9, an intrinsic clearance, human liver microsomes of 16 mL/min/kg and an intrinsic clearance, rat liver microsomes of 308 mL/min/kg.

Work on `CC(C)NC(=O)COc1cccc(-c2nc(Nc3ccc4[nH]ncc4c3)c3ccccc3n2)c1` yielded an MDR1-MDCK efflux ratio of 20, a fraction unbound, human plasma of 0.00041 and a fraction unbound, rat plasma of 0.00313. For the same compound, the intrinsic clearance, human liver microsomes was 42.7 mL/min/kg and the intrinsic clearance, rat liver microsomes was 1560 mL/min/kg.

`CC1(c2nnc(-c3ccc4c(c3)OCCO4)o2)CCOCC1` showed an MDR1-MDCK efflux ratio of 0.742, an intrinsic clearance, human liver microsomes of 13.3 mL/min/kg and an intrinsic clearance, rat liver microsomes of 247 mL/min/kg. The aqueous solubility was 40.8 µg/mL (≈ 135 µM).

— the Biogen ADME set (Fang et al. 2023)
